Assay [1] relates to Thrombin time. Briefly: Thrombin time (IC50), Table 80.
Assay [2] deals with human thrombin (Homo sapiens, UniProt P00734). Kind of assay: Inhibition of thrombin hydrolysis of chromogenic substrate S2238 (Ki). It is filed as biochemical. Also noted: 0.2-0.5 nM human thrombin or human factor Xa; purchased Enzyme Research Laboratories, South Bend, Ind. The note with it: purified human thrombin, 0.10 M sodium phosphate buffer, pH 7.5, read-out: Ki values for inhibition of Serine Proteases: Trombin. As for the experimental part: (§1) The effectiveness of compounds of the present invention as inhibitors of blood coagulation proteases was determined using purified human proteases and synthetic substrates following procedures similar to those described in Kettner et al. (1990).
(§2) For these assays, the rate of enzymatic (thrombin, Factor Xa, and Factor VIIa) hydrolysis of chromogenic substrates (S2238 (H-D-Phe-Pip-Arg-pNA), S2222, and S2288, respectively; Kabi Pharmacia, Franklin, Ohio) was measured both in the absence and presence of compounds of the present invention. […] A decrease in the rate of absorbance change at 405 nm in the presence of inhibitor is indicative of enzyme inhibition. The results of this assay are expressed as inhibitory constant, Ki.
(§3) Thrombin and Xa determinations were made in 0.10 M sodium phosphate buffer, pH 7.5, containing 0.20 M NaCl, and 0.5% PEG 8000. VIIa determinations were made in 0.05 M tris buffer, pH 7.6, containing 0.10 M NaCl, 4 mM CaCl2, and 0.1% bovine serum albumin.
(§4) Reactions were allowed to go for 30 minutes and the velocities (rate of absorbance change vs time) were measured in the time frame of 25-30 minutes. The following relationship was used to calculate Ki values. [formula] where: vo is the velocity of the control in the absence of inhibitor;
(§5) vs is the velocity in the presence of inhibitor;
(§6) I is the concentration of inhibitor;
(§7) Ki is the dissociation constant of the enzyme: inhibitor complex;
(§8) S is the concentration of substrate;
(§9) Km is the Michaelis constant.

For assay [3], the target named is T1, human factor Xa (Homo sapiens, UniProt P00742).
T1 construct: 0.2-0.5 nM human thrombin or human factor Xa; purchased Enzyme Research Laboratories, South Bend, Ind
T1 sequence (P00742 235-488 limits assumed): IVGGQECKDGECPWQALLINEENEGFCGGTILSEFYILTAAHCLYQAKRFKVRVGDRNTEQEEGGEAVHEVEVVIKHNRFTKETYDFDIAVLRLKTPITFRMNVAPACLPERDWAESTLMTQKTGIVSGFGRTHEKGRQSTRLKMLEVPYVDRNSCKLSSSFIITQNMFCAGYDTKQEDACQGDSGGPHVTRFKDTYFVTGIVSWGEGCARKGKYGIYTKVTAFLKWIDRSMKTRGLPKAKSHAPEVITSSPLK
T1 sequence (P00742 41-179 partner limits assumed): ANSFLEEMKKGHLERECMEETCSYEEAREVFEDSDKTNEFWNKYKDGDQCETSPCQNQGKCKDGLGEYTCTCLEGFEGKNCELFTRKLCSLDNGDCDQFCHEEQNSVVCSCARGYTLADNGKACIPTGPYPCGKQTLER
Kind of assay: Inhibition of Factor Xa hydrolysis of chromogenic substrate S2222 (Ki). The class given is biochemical. The note with it: purified human factor Xa, 0.10 M sodium phosphate buffer; for pKi: pH 7.5, read-out: Ki values for inhibition of Serine Proteases: Factor Xa. On the procedure:
as §1, §2, §3, §4, §5, §6, §7, §8, §9

The target in assay [4] is T2, human factor VIIa (Homo sapiens, UniProt P08709).
T2 construct: 50 nM human factor VIIa (BiosPacific, Emeryville, Calif.); purchased BiosPacific, Emeryville, Calif
T2 sequence (P08709 213-466 limits assumed): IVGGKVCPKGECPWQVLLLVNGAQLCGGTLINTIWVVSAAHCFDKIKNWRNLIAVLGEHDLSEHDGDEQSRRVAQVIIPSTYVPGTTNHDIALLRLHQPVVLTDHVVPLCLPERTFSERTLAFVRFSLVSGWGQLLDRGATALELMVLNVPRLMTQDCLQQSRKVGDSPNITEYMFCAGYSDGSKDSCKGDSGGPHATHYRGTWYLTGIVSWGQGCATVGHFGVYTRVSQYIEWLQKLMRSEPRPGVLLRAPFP
T2 sequence (P08709 61-212 partner limits assumed): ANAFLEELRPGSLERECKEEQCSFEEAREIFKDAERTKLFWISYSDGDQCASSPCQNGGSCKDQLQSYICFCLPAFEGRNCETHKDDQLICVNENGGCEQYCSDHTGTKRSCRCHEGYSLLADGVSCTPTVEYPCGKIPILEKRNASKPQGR
Briefly: Inhibition of Factor VIIa hydrolysis of chromogenic substrate S2288 (Ki). It is filed as biochemical. The note with it: purified human factor VIIa, 0.05 M tris buffer; for pKi: pH 7.6, read-out: Ki values for inhibition of Serine Proteases: Factor VIIa; for Ki values for inhibition of Serine Proteases: Factor VIIa: pH 7.6. On the procedure: as §1, §2, §3, §4, §5, §6, §7, §8, §9

pIC50, pKi: −log10 of the molar value. Structures can show the parent of a compound that is named as a salt.

A word on the pIC50: it is the negative decadic logarithm of the IC50, by convention in mol/L. Low readings indicate a large IC50, high ones a small IC50. For orientation: pKi means the Ki on a negative log10 scale, so that one unit is a factor of ten.

Turning to `CN(c1ccccc1)N(CC(=O)NC(CCCCN)B1OC2CC3CC(C3(C)C)C2(C)O1)C(=O)CCc1ccccc1` (stereo not drawn) [Example 54.2.1, Hydrocinnamoyl-[N-(N-(Methyl)-Phenyl)-Gly]-boroLys-C10H16 HCl], in assay [1], the pIC50 is more than 4.30. Moreover, the pKi in assay [2] is more than 6.30.

Take `CN(CC(=O)NC(CCCCN)B1OC2CC3CC(C3(C)C)C2(C)O1)Cc1ccccc1Cn1cccc1` (stereo not drawn) [Example 64.1.3, Pinanediol N-{N-methyl-N-[2-(pyrrol-1-ylmethyl)-Benzyl]glycyl}-1-amido-5-aminopentaneboronate, hydrochloride salt]: in assay [1], the pIC50 was more than 4.30. Further, the pKi in assay [2] was more than 6.30.

For `CN(CC(=O)NC(CCCCN)B(O)O)Cc1ccccc1Cn1cccc1` (stereo not drawn) [Example 65.1.3, N-{N-methyl-N-[2-(pyrrol-1-ylmethyl)-Benzyl]glycyl}-1-amido-5-aminopentaneboronic acid, hydrochloride salt], the pIC50 in assay [1] is more than 4.30. Besides, in assay [2], the pKi is more than 6.30.

As to `CC(C)(CC(=O)O)CC(=O)N(CCc1ccccc1)CC(=O)NC(CCCCN)B1OC2CC3CC(C3(C)C)C2(C)O1` (stereo not drawn) [Example 67.1.2, Glutaryl(3,3-Dimethyl)-[N-(Phenethyl)-Gly]-boroLys-C10H16], the figures for the pKi in assay [3], in assay [4] and in assay [2] were more than 4.30, more than 4.30 and more than 6.30, respectively.

As to `COC(=O)CC(C)(C)CC(=O)N(CCc1ccccc1)CC(=O)NC(CCCCN)B1OC2CC3CC(C3(C)C)C2(C)O1` (stereo not drawn) [Example 67.1.3, Methyl Glutaryl(3,3-Dimethyl)-[N-(Phenethyl)-Gly]-boroLys-C10H16 HCl], the values for the pKi in assay [3], in assay [4] and in assay [2] were more than 6.30, more than 4.30 and more than 6.30, respectively.

As to `CC(C)(C)OC(=O)NC(CCC(=O)O)C(=O)N(CCc1ccccc1)CC(=O)NC(CCCCN)B(O)O` (stereo not drawn) [Example 68.2.1, Boc-Glu-[N-(Phenethyl)-Gly]-boroLys--OH], the pKi in assay [3] was more than 4.30; in assay [4] it was more than 4.30; in assay [2], more than 6.30.

As to `NCCCCC(NC(=O)CN(CCc1ccccc1)C(=O)CCC(=O)O)B(O)O` (stereo not drawn) [Example 68.3.1, Succinyl-[N-(Phenethyl)-Gly]-boroLys--OH], the negative-log Ki (pKi) in assay [3] is more than 4.30; in assay [4], more than 4.30; in assay [2], more than 6.30.

As to `COC(=O)CCCC(=O)N(CCc1ccccc1)CC(=O)NC(CCCCN)B1OC2CC3CC(C3(C)C)C2(C)O1` (stereo not drawn) [Example 69.4.1, Methyl Glutaryl-[N-(Phenethyl)-Gly]-boroLys-C10H16 HCl], the pKi in assay [3] was more than 4.30; in assay [4], more than 4.30; in assay [2], more than 6.30.

`Cc1cccc(CCN(CC(=O)NC(CCCCN)B2OC3CC4CC(C4(C)C)C3(C)O2)C(=O)CCC(=O)O)c1` (stereo not drawn) [Example 73.1.2, Succinyl-[N-(3-(Methyl)-Phenethyl)-Gly]-boroLys-C10H16 HCl]: the pKi is more than 6.30 in assay [3], more than 4.30 in assay [4] and more than 6.30 in assay [2].

`NCCCCC(NC(=O)CN(C(=O)COc1ccccc1)C1CC1)B(O)O` (stereo not drawn) [Example 78.1.2, Phenoxyacetyl-[N-(Cyclopropyl)-Gly]-boroLys--OH HCl] showed a pIC50 in assay [1] of more than 6.30. Moreover, the pKi in assay [2] was more than 6.30.

For the compound `NCCCCC(NC(=O)CN(C(=O)Cc1cccs1)C1CC1)B(O)O` (stereo not drawn) [Example 78.1.3, Thiophenacetyl-[N-(Cyclopropyl)-Gly]-boroLys--OH HCl], the pIC50 in assay [1] was more than 6.30. Besides, the pKi in assay [2] is more than 6.30.

The compound `CC1(C)C2CC3OB(C(CCCCN)NC(=O)CN(C(=O)COc4ccccc4)C4CC4)OC3(C)C1C2` (stereo not drawn) [Example 79.1.2, Phenoxyacetyl-[N-(Cyclopropyl)-Gly]-boroLys-C10H16 HCl] showed a pIC50 in assay [1] of more than 6.30. In assay [2], the pKi is more than 6.30.

In assay [1], `CC1(C)C2CC3OB(C(CCCCN)NC(=O)CN(C(=O)Cc4cccs4)C4CC4)OC3(C)C1C2` (stereo not drawn) [Example 79.1.3, Thiophenacetyl-[N-(Cyclopropyl)-Gly]-boroLys-C10H16 HCl] gave a pIC50 of more than 6.30. In addition, the pKi in assay [2] is more than 6.30.

On to “(2-(2-Cyano)-Thiophenyl)-Benzoyl-Sar-boroLys(CH=NH)-C10H16 HCl [Example 62.4.2]”, for which the pKi in assay [3] is more than 6.30; in assay [4], more than 4.30; in assay [2] it was more than 6.30.

Take “(2-(2-Cyano)-Thiophenyl)-Benzoyl-Sar-boroOrn(CH=NH)-C10H16 HCl [Example 62.4.1]”: the pKi in assay [3], in assay [4] and in assay [2] was more than 6.30 throughout.

Take “Hydrocinnamoyl-Sar-Lys(Z)--C(=O)--O-(CH2)2--NH(Z) [Example 61.1.2]”: in assay [3] (pH 7.5), the “Ki values for inhibition of Serine Proteases: Factor Xa” value is listed as “Inactive”. For the same compound, the “Ki values for inhibition of Serine Proteases: Factor VIIa” value (from here on “Ki values for inhibition … Factor VIIa”) in assay [4] is listed as “Inactive”. In assay [2], the pKi was more than 4.30.

Turning to “Hydrocinnamoyl-Sar-Lys--C(=O)--O--(CH2)2--NH2 2 HCl [Example 61.1.3]”, the pKi in assay [3] and in assay [2] was more than 4.30 throughout. The “Ki values for inhibition … Factor VIIa” value in assay [4] is recorded as “Inactive”.

Regarding “Hydrocinnamoyl-Sar-Lys--C(=O)--OCH3 HCl [Example 61.2.1]”, the pKi in assay [3], in assay [4] and in assay [2] was more than 4.30 in each case.

As for “Hydrocinnamoyl-Sar-Lys[C(O)CO2 H] [Example 61.1.1]”, the negative-log Ki (pKi) was more than 4.30 in assay [3], more than 4.30 in assay [4] and more than 6.30 in assay [2].

Consider “Hydrocinnamoyl-[N-(2,2-(Dimethyl)-Phenethyl)-Gly]-boroOrn(CH=NH)--OH HCl [Example 57.1.1]”, for which the pKi in assay [3], in assay [4] and in assay [2] was more than 6.30 in each case.

On to “Hydrocinnamoyl-[N-(2,2-(Dimethyl)-Phernethyl)-Gly]-boroOrn(CH=NH)-C10H16 HCl [Example 58.1.1]”, for which the negative-log Ki (pKi) in assay [3], in assay [4] and in assay [2] was more than 6.30 throughout.

In the case of “Hydrocinnamoyl-[N-(2-(Cyclopropyl)-Phenethyl)-Gly]-boroOrn(CH=NH)--OH HCl [Example 57.1.2]”, the pKi in assay [3], in assay [4] and in assay [2] was more than 6.30 in each case.

For “Hydrocinnamoyl-[N-(N(CH3)2)-Gly]-boroLys--OH HCl [Example 72.1.3]”, in assay [1], the pIC50 is more than 6.30. The pKi in assay [2] was more than 6.30.

With “Hydrocinnamoyl-[N-(N(CH3)2)-Gly]-boroOrn(CH=NH)-C10H16 HCl [Example 50.1.2]”, in assay [1], the pIC50 was more than 6.30. Besides, the pKi in assay [2] was more than 6.30.

Turning to “Hydrocinnamoyl-[N-(N-(Methyl)-Benzyl)-Gly]-boroLys--OH HCl [Example 53.2.2]”, the pKi in assay [3], in assay [4] and in assay [2] was more than 6.30 in each case.

Consider “Hydrocinnamoyl-[N-(N-(Methyl)-Benzyl)-Gly]-boroLys-C10H16 HCl [Example 54.2.2]”, for which, in assay [1], the pIC50 was more than 4.30. Besides, the negative-log Ki (pKi) in assay [2] is more than 6.30.

“Hydrocinnamoyl-[N-(N-(Methyl)-Phenyl)-Gly]-boroLys--OH HCl [Example 53.2.1]” showed a pIC50 in assay [1] of more than 4.30. The pKi in assay [2] was more than 6.30.

Regarding “Hydrocinnamoyl-[N-(Phenethyl)-Gly]-boroOrn(CH=NH)-C10H16 HCl [Example 49.1.2]”, the pIC50 in assay [1] is more than 6.30. Besides, the pKi in assay [2] was more than 6.30.

Consider “Pinanediol N-{N-methyl-N-[2-(Thiophenyl)-Benzoyl]Sar}-1-amido-5-thiocyanatobutane boronate [Example 63.5.1]”, for which the pKi in assay [3] and in assay [2] was more than 4.30 throughout. In addition, the “Ki values for inhibition … Factor VIIa” value in assay [4] is “inactive”.

On to “[3-(Trifluoromethyl)-Benzyl]-Benzoyl-Sar-boroLys-C10H16 HCl [Example 64.2.2]”, for which the pKi is more than 6.30 in assay [3], more than 4.30 in assay [4] and more than 6.30 in assay [2].

For the origin of these results see patent US6060462A, “Electrophilic peptide analogs as inhibitors of trypsin-like enzymes” (DuPont Pharmaceuticals Company, priority 1997, dated 2000).
